We go through 1 compound from patent US9617310B2 (priority 2013, dated 2017).

The term EC50 denotes the concentration giving half of the maximal effect. One may read the Ki as the dissociation constant of the complex between target and ligand, obtained from inhibition or displacement. Read a low Ki as higher affinity.

The subject of test [1] is genotype 2a stable HCV replicon (JFH-1) in Huh-7-derived cells. In words: Stable subgenomic HCV replicon, genotype 2a, Renilla luciferase. The note with it: Hepatitis C virus, stable replicon genotype 2a, 72 h, read-out: EC50 2A RLUC. The class given is cell-based. In general terms: Replicon systems follow genome replication, usually without infectious particles.
In test [2] the test system is genotype 1b stable HCV replicon (Con1) in Huh-7-derived cells. In words: Stable subgenomic HCV replicon, genotype 1b, Renilla luciferase. The class given is cell-based. Conditions: Hepatitis C virus, stable replicon genotype 1b, 72 h, read-out: EC50 1B RLUC. The essentials: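 Replicons carry hRLuc-neo, EMCV IRES and NS3-NS5B with adaptive mutations: 1a H77 P1496L/S2204I, 1b Con1 E1202G/T1280I/K1846T, 4a ED43 Q1691R/S2204I. EC50 came from non-linear regression versus DMSO and a triple-inhibitor full-inhibition control.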

The target in a further test is T1, NS3 genotype 3a protease (UniProt Q81258).
T1 construct: Purified NS3 protease domain (amino acids 1-181) of the genotype 1b and 3a virus were generated as above; fused on or other part: N-terminal hexahistidine tag with an rTEV protease cleavage site (vector p28-N6H-Tev-NS3(181)3)
T1 sequence (Q81258 1033-1663): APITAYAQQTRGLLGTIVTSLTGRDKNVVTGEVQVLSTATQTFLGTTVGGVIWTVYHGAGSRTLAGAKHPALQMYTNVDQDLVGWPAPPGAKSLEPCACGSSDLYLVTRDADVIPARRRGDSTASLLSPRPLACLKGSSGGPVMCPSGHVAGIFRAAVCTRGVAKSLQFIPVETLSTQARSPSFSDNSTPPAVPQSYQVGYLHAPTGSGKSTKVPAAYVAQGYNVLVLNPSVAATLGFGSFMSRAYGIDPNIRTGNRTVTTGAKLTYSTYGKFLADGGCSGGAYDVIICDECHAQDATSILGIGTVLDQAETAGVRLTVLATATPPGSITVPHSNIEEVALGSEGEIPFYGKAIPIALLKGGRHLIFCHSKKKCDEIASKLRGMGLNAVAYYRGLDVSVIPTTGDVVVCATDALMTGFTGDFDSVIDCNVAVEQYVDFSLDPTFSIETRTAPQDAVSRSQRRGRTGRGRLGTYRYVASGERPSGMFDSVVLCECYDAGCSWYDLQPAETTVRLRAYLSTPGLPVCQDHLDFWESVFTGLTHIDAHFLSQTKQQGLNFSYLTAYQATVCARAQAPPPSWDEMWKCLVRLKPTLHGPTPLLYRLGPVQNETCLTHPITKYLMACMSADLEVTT
The test can be described thus: Ki determination, NS3 protease genotype 3a (fluorogenic depsipeptide substrate). It is filed as biochemical, hepatitis C virus. Conditions: NS3 protease domain genotype 3a, NS4A peptide. The essentials: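 NS3 protease domain (aa 1-181), 50 pM (1b) or 200 pM (3a), with 20 μM NS4A peptide, pre-incubated 1 h with inhibitor (100 nM–5 pM); 4 μM (1b) or 2 μM (3a) FRET depsipeptide substrate, room temperature, pH-unspecified HEPES buffer with 40% glycerol, 10% DMSO. Steady-state rates at 90–120 min (ex 340/em 490); Morrison fit gave Ki^app, corrected to Ki via substrate/Km.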

In test [3] the test system is NS3/4a protease inhibitor resistant variant D168A in genotype 1b transient HCV replicon. In words: Transient-transfected HCV replicon, genotype 1b D168A. The class given is cell-based. Conditions: Hepatitis C virus, 72 h, read-out: EC50 1B D168A.
The test system of test [4] is genotype 3a stable HCV replicon (S52) in Huh-7-derived cells. The test can be described thus: Stable subgenomic HCV replicon, genotype 3a, Renilla luciferase. It is filed as cell-based. Conditions: Hepatitis C virus, 72 h, read-out: EC50 3A RLUC.

Turning to `COc1ccc2cc3c(nc2c1)O[C@@H]1C[C@@H](C(=O)N[C@]2(C(=O)NS(=O)(=O)C4CC4)C[C@H]2C(F)F)N(C1)C(=O)[C@H](C(C)(C)C)NC(=O)O[C@@H]1C[C@@H]2C[C@@H]2[C@H]1CCCCC3` [Example 21, (1aS,2aR,6S,9S,11R,23aR,23bS)-6-tert-butyl-N-[(1R,2R)-1-[(cyclopropylsulfonyl)carbamoyl]-2-(difluoromethyl)cyclopropyl]-15-methoxy-4,7-dioxo-1a,2,2a,4,5,6,7,10,11,19,20,21,22,23,23a,23b-hexadecahydro-1H,9H-8,11-methanocyclopropa[4′,5′]cyclopenta[1′,2′:18,19][1,10,3,6]dioxadiazacyclononadecino[11,12-b]quinoline-9-carboxamide], the concentration giving a half-maximal response (EC50) in test [1] stood at 3.5 nM; in test [2], 0.95 nM; in test [3], 22 nM; in test [4], 115 nM. The same compound returned a Ki at NS3 genotype 3a protease of 0.1 nM.
